# Patent US20250017914A1, “6-AZA-QUINOLINE DERIVATIVES AND RELATED USES” (Black Diamond Therapeutics, Inc., priority 2021, published 2025)
# Target: T1, BaF3 BRAF-KIAA1549 fusion cells (Homo sapiens, UniProt P15056)
# T1 construct: The BRAF-KIAA1549 fusion mutant was subcloned into pMXs-IRES-Blasticidin (RTV-016, Cell Biolabs, San Diego, CA); No tag given; Q9HCM3 (UPF0606 protein KIAA1549)
# Experiment: BaF3 BRAF-KIAA1549 fusion cell proliferation assay (CellTiterGlo, 96 hours)
# Format: cell-based
# Method in brief: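 BaF3 cells retrovirally transduced with BRAF-KIAA1549 fusion and blasticidin-selected were plated at 7×10^4 c/well in RPMI, 10% heat-inactivated FBS, 1% L-glutamine, and exposed to compound for 96 hours. Growth was read as ATP content by CellTiterGlo luminescence. IC50 was fitted by Levenberg-Marquardt, normalised to DMSO-treated cells.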
# T1 sequence (P15056 whole entry, change not shown, the tested form may be a part): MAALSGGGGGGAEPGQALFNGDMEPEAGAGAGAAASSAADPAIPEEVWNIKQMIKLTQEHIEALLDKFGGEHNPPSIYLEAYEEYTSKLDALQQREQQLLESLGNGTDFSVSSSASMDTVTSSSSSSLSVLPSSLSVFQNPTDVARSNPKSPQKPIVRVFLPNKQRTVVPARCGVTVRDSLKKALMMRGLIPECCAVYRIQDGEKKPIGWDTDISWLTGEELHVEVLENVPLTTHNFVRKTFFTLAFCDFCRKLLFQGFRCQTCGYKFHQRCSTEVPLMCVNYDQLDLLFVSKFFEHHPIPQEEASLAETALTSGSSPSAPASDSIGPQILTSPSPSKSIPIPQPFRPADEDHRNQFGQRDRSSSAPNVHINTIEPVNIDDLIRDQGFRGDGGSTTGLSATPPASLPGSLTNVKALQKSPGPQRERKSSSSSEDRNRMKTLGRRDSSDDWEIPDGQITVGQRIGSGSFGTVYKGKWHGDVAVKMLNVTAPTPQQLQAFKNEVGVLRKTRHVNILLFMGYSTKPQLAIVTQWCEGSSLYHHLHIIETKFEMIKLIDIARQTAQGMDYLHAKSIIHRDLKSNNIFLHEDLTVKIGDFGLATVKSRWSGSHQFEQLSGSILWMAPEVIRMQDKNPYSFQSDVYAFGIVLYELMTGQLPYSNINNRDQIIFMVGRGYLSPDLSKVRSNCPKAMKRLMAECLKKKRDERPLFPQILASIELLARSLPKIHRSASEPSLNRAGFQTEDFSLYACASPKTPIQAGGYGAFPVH
Compound,GI50 (Table A2) [µM],GI50 (Table A1) [µM]
"CNc1ncc2cc(-c3cc(NC(=O)c4ccnc(C(C)(C)C#N)c4)cnc3C)cnc2c1C#N [Compound 192, N-[5-[8-cyano-7-(methylamino)-1,6-naphthyridin-3-yl]-6-methyl-3-pyridyl]-2-(1-cyano-1-methyl-ethyl)pyridine-4-carboxamide]",0.1 to 0.5,–
"CNc1cc2ncc(-c3cc(NC(=O)c4ccnc(C(F)(F)F)c4)ccc3C)cc2cn1 [Compound 2, N-(4-methyl-3-(7-(methylamino)-1,6-naphthyridin-3-yl)phenyl)-2-(trifluoromethyl)isonicotinamide]",–,0.02 to 0.1
"CNc1cc2ncc(-c3cc(NC(=O)c4cc(C(C)(F)F)ccn4)cnc3C)cc2cn1 [Compound 23, 4-(1,1-Difluoroethyl)-N-(6-methyl-5-(7-(methylamino)-1,6-naphthyridin-3-yl)pyridin-3-yl)picolinamide]",–,0.02 to 0.1
"CNc1cc2c(C#N)cc(-c3cc(NC(=O)c4ccnc(C5(F)CC5)c4)ccc3C)cc2cn1 [Compound 272, N-(3-(5-cyano-3-(methylamino)isoquinolin-7-yl)-4-methylphenyl)-2-(1-fluorocyclopropyl)isonicotinamide]",0.02 to 0.1,–
"CNc1cc2ncc(-c3cc(NC(=O)c4ccnc(C(C)(C)F)c4)c(F)cc3C)cc2cn1 [Compound 222, N-(2-fluoro-4-methyl-5-(7-(methylamino)-1,6-naphthyridin-3-yl)phenyl)-2-(2-fluoropropan-2-yl)isonicotinamide]",0.02 to 0.1,–
"CNc1cc2ncc(-c3cc(NC(=O)c4cc(C(C)(C)C#N)ccn4)c(F)cc3Cl)cc2cn1 [Compound 37, N-(4-Chloro-2-fluoro-5-(7-(methylamino)-1,6-naphthyridin-3-yl)phenyl)-4-(2-cyanopropan-2-yl)picolinamide]",–,0.02 to 0.1

# Now from value to compound:
GI50 (Table A2) [µM],GI50 (Table A1) [µM],Compound
0.02 to 0.1,–,"CNc1cc2ncc(-c3cc(NC(=O)c4noc5c4CC(F)(F)CC5)cnc3C)cc2cn1 [Compound 247, 5,5-difluoro-N-(6-methyl-5-(7-(methylamino)-1,6-naphthyridin-3-yl)pyridin-3-yl)-4,5,6,7-tetrahydrobenzo[d]isoxazole-3-carboxamide]"
0.02 to 0.1,–,"CNc1cc2ncc(-c3cc(NC(=O)c4cc(C(O)C(C)C)ccn4)cnc3C)cc2cn1 (stereo not shown) [Compound 202, 4-(1-hydroxy-2-methylpropyl)-N-(6-methyl-5-(7-(methylamino)-1,6-naphthyridin-3-yl)pyridin-3-yl)picolinamide]"
0.02 to 0.1,–,"CNc1cc2ncc(-c3cc(NC(=O)c4cnc5n4C[C@@H](C)CC5)ccc3C)cc2cn1 (single isomer, unassigned) [Compound 231]"
0.02 to 0.1,–,"CNc1cc2ncc(-c3cc(NC(=O)c4n[nH]c5c4CCCC5)cnc3C)cc2cn1 [Compound 229, N-(6-methyl-5-(7-(methylamino)-1,6-naphthyridin-3-yl)pyridin-3-yl)-4,5,6,7-tetrahydro-1H-indazole-3-carboxamide]"
0.02 to 0.1,–,"CNc1cc2ncc(-c3cc(NC(=O)c4csc5c4CCCC5)cnc3C)cc2cn1 [Compound 234, N-(6-methyl-5-(7-(methylamino)-1,6-naphthyridin-3-yl)pyridin-3-yl)-4,5,6,7-tetrahydrobenzo[b]thiophene-3-carboxamide]"
0.02 to 0.1,–,"CCC(OC)c1ccnc(C(=O)Nc2cnc(C)c(-c3cnc4cc(NC)ncc4c3)c2)c1 (stereo not shown) [Compound 260, 4-(1-methoxypropyl)-N-(6-methyl-5-(7-(methylamino)-1,6-naphthyridin-3-yl)pyridin-3-yl)picolinamide]"
0.02 to 0.1,–,"CNc1cc2ncc(-c3cc(NC(=O)c4n[nH]c5c4C[C@@H]4C[C@H]54)cnc3C)cc2cn1 [Compound 252, (4aS,5aS)—N-(6-methyl-5-(7-(methylamino)-1,6-naphthyridin-3-yl)pyridin-3-yl)-4,4a,5,5a-tetrahydro-1H-cyclopropa[4,5]cyclopenta[1,2-c]pyrazole-3-carboxamide]"
